Source: the kinase profiling compilation of Christmann-Franck et al. (2016)
One block for each compound: values may come before it.

Experiments:
Experiment in all cases: radiometric filter-binding kinase assay
PIM3 (human) = PIM3 (human) (UniProt Q86V86)
MELK (human) = MELK (human) (UniProt Q14680)
CHEK1 (human) = CHEK1 (human) (UniProt O14757)
PRKCA (human) = PRKCA (human) (UniProt P17252)
INSRR (human) = INSRR (human) (UniProt P14616)
MAPK12 (human) = MAPK12 (human) (UniProt P53778)
[1] = tested on: SGK1 (human), O00141 [S422D]
BTK (human) = BTK (human) (UniProt Q06187)
PRKACA (human) = PRKACA (human) (UniProt P17612)
PHKG1 (human) = PHKG1 (human) (UniProt Q16816)
MAPKAPK5 (human) = MAPKAPK5 (human) (UniProt Q8IW41)
EPHA2 (human) = EPHA2 (human) (UniProt P29317)
CDK2 CCNA2 (human) = CDK2 CCNA2 (human) (UniProt P20248+P24941)
CSNK2A1 (human) = CSNK2A1 (human) (UniProt P68400)
PIM2 (human) = PIM2 (human) (UniProt Q9P1W9)
MAPK15 (human) = MAPK15 (human) (UniProt Q8TD08)
FGFR1 (human) = FGFR1 (human) (UniProt P11362)
SRPK1 (human) = SRPK1 (human) (UniProt Q96SB4)
FLT1 (human) = FLT1 (human) (UniProt P17948)
EEF2K (human) = EEF2K (human) (UniProt O00418)
MST4 (human) = MST4 (human) (UniProt Q9P289)
AURKB (human) = AURKB (human) (UniProt Q96GD4)
RPS6KA3 KD1 KD2 (human) = RPS6KA3 KD1 KD2 (human) (UniProt P51812)
DYRK2 (human) = DYRK2 (human) (UniProt Q92630)

Chain of MAPK12 (human) (P53778 whole entry, looked up): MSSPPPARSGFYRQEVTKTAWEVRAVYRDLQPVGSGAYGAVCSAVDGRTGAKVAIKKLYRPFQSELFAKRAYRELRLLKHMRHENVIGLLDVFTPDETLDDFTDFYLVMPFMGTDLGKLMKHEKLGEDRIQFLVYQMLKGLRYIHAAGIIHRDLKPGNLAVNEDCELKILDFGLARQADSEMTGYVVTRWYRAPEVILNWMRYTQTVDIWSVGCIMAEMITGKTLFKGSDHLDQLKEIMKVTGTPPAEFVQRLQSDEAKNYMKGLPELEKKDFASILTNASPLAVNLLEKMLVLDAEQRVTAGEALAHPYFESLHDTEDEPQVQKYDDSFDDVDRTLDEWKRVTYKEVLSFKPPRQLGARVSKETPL
Chain of CSNK2A1 (human) (P68400 whole entry, looked up): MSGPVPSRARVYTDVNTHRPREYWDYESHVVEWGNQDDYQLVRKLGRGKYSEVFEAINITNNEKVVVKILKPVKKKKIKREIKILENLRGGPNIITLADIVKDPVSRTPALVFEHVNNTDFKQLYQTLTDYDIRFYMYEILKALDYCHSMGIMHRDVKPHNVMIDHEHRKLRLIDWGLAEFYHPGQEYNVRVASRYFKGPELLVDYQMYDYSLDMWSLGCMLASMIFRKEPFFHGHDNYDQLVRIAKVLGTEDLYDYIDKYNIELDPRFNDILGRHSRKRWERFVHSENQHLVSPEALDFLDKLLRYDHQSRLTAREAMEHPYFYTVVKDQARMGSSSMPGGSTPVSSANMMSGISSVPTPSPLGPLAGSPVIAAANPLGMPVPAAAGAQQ
Chain of MAPKAPK5 (human) (Q8IW41 whole entry, looked up): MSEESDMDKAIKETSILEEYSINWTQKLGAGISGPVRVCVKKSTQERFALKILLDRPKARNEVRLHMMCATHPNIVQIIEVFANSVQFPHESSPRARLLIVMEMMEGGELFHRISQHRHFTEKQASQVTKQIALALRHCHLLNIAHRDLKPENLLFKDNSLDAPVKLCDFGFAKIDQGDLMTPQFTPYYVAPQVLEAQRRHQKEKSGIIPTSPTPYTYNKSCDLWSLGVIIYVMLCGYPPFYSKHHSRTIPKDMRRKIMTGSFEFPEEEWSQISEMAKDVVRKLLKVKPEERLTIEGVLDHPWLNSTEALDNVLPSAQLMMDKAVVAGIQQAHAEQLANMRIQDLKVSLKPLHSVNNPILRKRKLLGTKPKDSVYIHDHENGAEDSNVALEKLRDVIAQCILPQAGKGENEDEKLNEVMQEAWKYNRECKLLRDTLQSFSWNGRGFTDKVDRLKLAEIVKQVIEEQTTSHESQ
Chain of MAPK15 (human) (Q8TD08 whole entry, looked up): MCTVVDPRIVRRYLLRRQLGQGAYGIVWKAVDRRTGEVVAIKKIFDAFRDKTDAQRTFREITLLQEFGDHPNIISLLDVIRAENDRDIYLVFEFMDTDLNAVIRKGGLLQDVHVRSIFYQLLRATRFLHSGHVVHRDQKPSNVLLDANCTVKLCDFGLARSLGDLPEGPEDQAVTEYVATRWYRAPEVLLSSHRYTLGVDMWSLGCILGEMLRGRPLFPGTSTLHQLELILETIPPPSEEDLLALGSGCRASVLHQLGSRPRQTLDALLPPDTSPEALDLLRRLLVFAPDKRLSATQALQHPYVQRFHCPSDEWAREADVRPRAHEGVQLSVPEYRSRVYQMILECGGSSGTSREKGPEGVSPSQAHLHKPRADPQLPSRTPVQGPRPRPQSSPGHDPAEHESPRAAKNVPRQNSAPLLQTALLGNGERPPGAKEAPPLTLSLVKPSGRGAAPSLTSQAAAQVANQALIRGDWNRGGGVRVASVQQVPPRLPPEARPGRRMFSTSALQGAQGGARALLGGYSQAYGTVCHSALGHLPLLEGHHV
Chain of CHEK1 (human) (O14757 whole entry, looked up): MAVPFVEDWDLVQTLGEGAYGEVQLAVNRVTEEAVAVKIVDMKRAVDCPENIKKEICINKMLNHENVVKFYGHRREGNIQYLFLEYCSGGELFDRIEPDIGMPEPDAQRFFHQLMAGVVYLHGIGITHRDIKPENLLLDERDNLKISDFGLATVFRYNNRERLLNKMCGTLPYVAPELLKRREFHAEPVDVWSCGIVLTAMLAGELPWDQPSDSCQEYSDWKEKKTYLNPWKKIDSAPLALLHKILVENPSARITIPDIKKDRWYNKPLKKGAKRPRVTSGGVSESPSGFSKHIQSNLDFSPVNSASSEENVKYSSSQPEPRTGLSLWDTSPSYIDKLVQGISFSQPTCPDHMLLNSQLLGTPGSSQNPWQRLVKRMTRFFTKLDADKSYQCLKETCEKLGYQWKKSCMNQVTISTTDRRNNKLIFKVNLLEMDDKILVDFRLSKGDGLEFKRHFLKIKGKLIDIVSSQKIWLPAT
Chain of SRPK1 (human) (Q96SB4 whole entry, looked up): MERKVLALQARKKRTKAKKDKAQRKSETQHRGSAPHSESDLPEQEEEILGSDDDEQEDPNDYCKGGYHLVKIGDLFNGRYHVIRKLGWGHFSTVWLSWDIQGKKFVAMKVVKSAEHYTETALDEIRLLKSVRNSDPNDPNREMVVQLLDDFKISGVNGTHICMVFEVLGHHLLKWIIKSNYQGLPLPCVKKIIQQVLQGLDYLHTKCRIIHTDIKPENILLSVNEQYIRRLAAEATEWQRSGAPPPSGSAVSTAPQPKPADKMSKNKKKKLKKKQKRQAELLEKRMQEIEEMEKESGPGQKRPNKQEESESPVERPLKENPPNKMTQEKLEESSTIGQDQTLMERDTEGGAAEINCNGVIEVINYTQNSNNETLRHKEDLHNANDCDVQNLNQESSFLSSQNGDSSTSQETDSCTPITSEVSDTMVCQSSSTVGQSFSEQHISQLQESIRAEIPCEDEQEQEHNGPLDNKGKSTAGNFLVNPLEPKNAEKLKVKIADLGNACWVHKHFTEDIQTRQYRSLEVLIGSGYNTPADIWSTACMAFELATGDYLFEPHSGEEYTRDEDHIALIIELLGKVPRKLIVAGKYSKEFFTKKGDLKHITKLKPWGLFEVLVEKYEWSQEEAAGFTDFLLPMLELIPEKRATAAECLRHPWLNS
Chain of FGFR1 (human) (P11362 whole entry, looked up): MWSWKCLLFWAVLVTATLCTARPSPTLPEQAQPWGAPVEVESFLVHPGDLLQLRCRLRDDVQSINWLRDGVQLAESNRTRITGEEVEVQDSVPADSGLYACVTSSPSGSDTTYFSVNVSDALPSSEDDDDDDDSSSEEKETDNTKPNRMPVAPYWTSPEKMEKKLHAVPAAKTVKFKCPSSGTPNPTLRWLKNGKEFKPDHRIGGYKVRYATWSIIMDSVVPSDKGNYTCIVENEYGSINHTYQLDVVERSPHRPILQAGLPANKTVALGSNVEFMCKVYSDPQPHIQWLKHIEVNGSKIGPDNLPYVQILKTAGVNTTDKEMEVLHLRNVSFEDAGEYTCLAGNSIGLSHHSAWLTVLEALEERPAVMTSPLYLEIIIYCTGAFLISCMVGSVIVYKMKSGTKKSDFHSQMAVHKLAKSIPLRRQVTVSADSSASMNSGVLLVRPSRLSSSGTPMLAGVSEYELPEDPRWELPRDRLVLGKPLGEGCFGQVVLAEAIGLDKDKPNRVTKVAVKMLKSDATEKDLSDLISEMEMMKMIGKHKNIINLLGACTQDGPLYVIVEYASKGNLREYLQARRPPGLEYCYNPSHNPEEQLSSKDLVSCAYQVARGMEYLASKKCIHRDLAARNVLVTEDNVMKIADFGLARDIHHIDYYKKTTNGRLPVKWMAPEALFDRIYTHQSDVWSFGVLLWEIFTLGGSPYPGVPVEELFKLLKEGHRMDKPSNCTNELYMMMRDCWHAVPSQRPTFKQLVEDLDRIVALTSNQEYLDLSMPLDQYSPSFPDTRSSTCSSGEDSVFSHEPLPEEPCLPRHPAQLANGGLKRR
Chain of BTK (human) (Q06187 whole entry, looked up): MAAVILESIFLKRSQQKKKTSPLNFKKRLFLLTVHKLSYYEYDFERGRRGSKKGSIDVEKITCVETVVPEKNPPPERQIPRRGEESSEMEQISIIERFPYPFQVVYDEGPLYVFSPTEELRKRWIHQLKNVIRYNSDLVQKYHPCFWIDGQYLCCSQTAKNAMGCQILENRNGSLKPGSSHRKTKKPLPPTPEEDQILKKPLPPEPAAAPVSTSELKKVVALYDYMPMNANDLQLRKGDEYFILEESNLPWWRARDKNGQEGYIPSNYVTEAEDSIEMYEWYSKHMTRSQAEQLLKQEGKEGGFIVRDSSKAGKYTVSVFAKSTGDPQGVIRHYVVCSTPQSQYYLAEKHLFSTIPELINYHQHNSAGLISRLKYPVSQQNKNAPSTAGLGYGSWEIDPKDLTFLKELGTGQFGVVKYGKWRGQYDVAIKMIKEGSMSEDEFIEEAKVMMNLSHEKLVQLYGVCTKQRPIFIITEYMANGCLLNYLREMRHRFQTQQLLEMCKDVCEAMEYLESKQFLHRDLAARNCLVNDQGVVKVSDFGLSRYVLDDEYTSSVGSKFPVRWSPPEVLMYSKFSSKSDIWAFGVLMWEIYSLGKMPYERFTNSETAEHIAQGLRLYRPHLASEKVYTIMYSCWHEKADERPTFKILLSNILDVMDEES
Chain of SGK1 (human), O00141 [S422D] (O00141 whole entry S422D, looked up): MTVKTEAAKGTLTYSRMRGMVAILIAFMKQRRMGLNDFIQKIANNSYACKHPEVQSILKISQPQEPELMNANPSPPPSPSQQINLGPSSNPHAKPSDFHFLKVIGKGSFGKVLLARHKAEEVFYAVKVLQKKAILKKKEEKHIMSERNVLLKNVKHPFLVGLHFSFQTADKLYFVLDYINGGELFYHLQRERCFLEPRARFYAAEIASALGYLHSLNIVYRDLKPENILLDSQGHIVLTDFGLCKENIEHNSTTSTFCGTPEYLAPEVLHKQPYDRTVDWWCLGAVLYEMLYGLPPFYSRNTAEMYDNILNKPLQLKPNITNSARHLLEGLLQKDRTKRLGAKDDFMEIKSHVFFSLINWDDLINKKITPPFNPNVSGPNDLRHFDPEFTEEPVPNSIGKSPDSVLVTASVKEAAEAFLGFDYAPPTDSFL

Compound: C[C@H]1CCCC(=O)CCC/C=C/c2cc(O)cc(O)c2C(=O)O1
residual activity (PIM3 (human); compound 1.0 µM): 49% | residual activity (PIM3 (human); compound 10.0 µM): 18% | residual activity (MELK (human); compound 1.0 µM): 97% | residual activity (MELK (human); compound 10.0 µM): 66% | residual activity (CHEK1 (human); compound 1.0 µM): 92% | residual activity (CHEK1 (human); compound 10.0 µM): 81% | residual activity (PRKCA (human); compound 1.0 µM): 54% | residual activity (PRKCA (human); compound 10.0 µM): 69% | residual activity (INSRR (human); compound 1.0 µM): 75% | residual activity (INSRR (human); compound 10.0 µM): 41% | residual activity (MAPK12 (human); compound 1.0 µM): 97% | residual activity (MAPK12 (human); compound 10.0 µM): 93% | residual activity ([1]; compound 1.0 µM): 93% | residual activity ([1]; compound 10.0 µM): 93% | residual activity (BTK (human); compound 1.0 µM): 107% | residual activity (BTK (human); compound 10.0 µM): 69% | residual activity (PRKACA (human); compound 1.0 µM): 97% | residual activity (PRKACA (human); compound 10.0 µM): 91% | residual activity (PHKG1 (human); compound 1.0 µM): 102% | residual activity (PHKG1 (human); compound 10.0 µM): 86% | residual activity (MAPKAPK5 (human); compound 1.0 µM): 97% | residual activity (MAPKAPK5 (human); compound 10.0 µM): 79% | residual activity (EPHA2 (human); compound 1.0 µM): 69% | residual activity (EPHA2 (human); compound 10.0 µM): 26% | residual activity (CDK2 CCNA2 (human); compound 1.0 µM): 82% | residual activity (CDK2 CCNA2 (human); compound 10.0 µM): 32% | residual activity (CSNK2A1 (human); compound 1.0 µM): 97% | residual activity (CSNK2A1 (human); compound 10.0 µM): 96% | residual activity (PIM2 (human); compound 1.0 µM): 86% | residual activity (PIM2 (human); compound 10.0 µM): 45% | residual activity (MAPK15 (human); compound 1.0 µM): 77% | residual activity (MAPK15 (human); compound 10.0 µM): 26% | residual activity (FGFR1 (human); compound 1.0 µM): 90% | residual activity (FGFR1 (human); compound 10.0 µM): 51% | residual activity (SRPK1 (human); compound 1.0 µM): 95% | residual activity (SRPK1 (human); compound 10.0 µM): 89% | residual activity (FLT1 (human); compound 1.0 µM): 95% | residual activity (FLT1 (human); compound 10.0 µM): 69% | residual activity (EEF2K (human); compound 1.0 µM): 101% | residual activity (EEF2K (human); compound 10.0 µM): 85% | residual activity (MST4 (human); compound 10.0 µM): 66% | residual activity (AURKB (human); compound 1.0 µM): 37% | residual activity (AURKB (human); compound 10.0 µM): 23% | residual activity (RPS6KA3 KD1 KD2 (human); compound 1.0 µM): 80% | residual activity (RPS6KA3 KD1 KD2 (human); compound 10.0 µM): 52% | residual activity (DYRK2 (human); compound 1.0 µM): 90% | residual activity (DYRK2 (human); compound 10.0 µM): 62%

residual activity (PIM3 (human); compound 0.1 µM): 99% | residual activity (PIM3 (human); compound 1.0 µM): 97% | residual activity (MELK (human); compound 0.1 µM): 98% | residual activity (MELK (human); compound 1.0 µM): 90% | residual activity (CHEK1 (human); compound 0.1 µM): 88% | residual activity (CHEK1 (human); compound 1.0 µM): 96% | residual activity (PRKCA (human); compound 0.1 µM): 101% | residual activity (PRKCA (human); compound 1.0 µM): 100% | residual activity (INSRR (human); compound 0.1 µM): 86% | residual activity (INSRR (human); compound 1.0 µM): 80% | residual activity (MAPK12 (human); compound 0.1 µM): 97% | residual activity (MAPK12 (human); compound 1.0 µM): 110% | residual activity ([1]; compound 0.1 µM): 102% | residual activity (BTK (human); compound 0.1 µM): 79% | residual activity (BTK (human); compound 1.0 µM): 78% | residual activity (PRKACA (human); compound 0.1 µM): 103% | residual activity (PRKACA (human); compound 1.0 µM): 96% | residual activity (PHKG1 (human); compound 0.1 µM): 113% | residual activity (PHKG1 (human); compound 1.0 µM): 115% | residual activity (MAPKAPK5 (human); compound 0.1 µM): 96% | residual activity (MAPKAPK5 (human); compound 1.0 µM): 86% | residual activity (EPHA2 (human); compound 0.1 µM): 96% | residual activity (EPHA2 (human); compound 1.0 µM): 102% | residual activity (CDK2 CCNA2 (human); compound 0.1 µM): 86% | residual activity (CDK2 CCNA2 (human); compound 1.0 µM): 91% | residual activity (CSNK2A1 (human); compound 0.1 µM): 115% | residual activity (CSNK2A1 (human); compound 1.0 µM): 106% | residual activity (PIM2 (human); compound 0.1 µM): 113% | residual activity (FGFR1 (human); compound 0.1 µM): 118% | residual activity (FGFR1 (human); compound 1.0 µM): 112% | residual activity (SRPK1 (human); compound 0.1 µM): 93% | residual activity (SRPK1 (human); compound 1.0 µM): 97% | residual activity (FLT1 (human); compound 0.1 µM): 80% | residual activity (FLT1 (human); compound 1.0 µM): 84% | residual activity (EEF2K (human); compound 0.1 µM): 88% | residual activity (EEF2K (human); compound 1.0 µM): 92% | residual activity (MST4 (human); compound 0.1 µM): 96% | residual activity (MST4 (human); compound 1.0 µM): 97% | residual activity (AURKB (human); compound 0.1 µM): 91% | residual activity (AURKB (human); compound 1.0 µM): 83% | residual activity (RPS6KA3 KD1 KD2 (human); compound 0.1 µM): 98% | residual activity (RPS6KA3 KD1 KD2 (human); compound 1.0 µM): 79% | residual activity (DYRK2 (human); compound 0.1 µM): 81% | residual activity (DYRK2 (human); compound 1.0 µM): 87%
Compound: Cn1c(=O)c2c(ncn2C)n(C)c1=O
residual activity (MAPK15 (human); compound 0.1 µM): 88% | residual activity (MAPK15 (human); compound 1.0 µM): 95%

residual activity (PIM3 (human); compound 1.0 µM): 90% | residual activity (PIM3 (human); compound 10.0 µM): 95% | residual activity (MELK (human); compound 1.0 µM): 84% | residual activity (MELK (human); compound 10.0 µM): 100% | residual activity (CHEK1 (human); compound 10.0 µM): 81% | residual activity (PRKCA (human); compound 1.0 µM): 97% | residual activity (PRKCA (human); compound 10.0 µM): 104% | residual activity (INSRR (human); compound 1.0 µM): 83% | residual activity (INSRR (human); compound 10.0 µM): 90% | residual activity (MAPK12 (human); compound 1.0 µM): 103% | residual activity (MAPK12 (human); compound 10.0 µM): 96% | residual activity ([1]; compound 1.0 µM): 87% | residual activity ([1]; compound 10.0 µM): 96% | residual activity (BTK (human); compound 1.0 µM): 84% | residual activity (BTK (human); compound 10.0 µM): 99% | residual activity (PRKACA (human); compound 1.0 µM): 80% | residual activity (PRKACA (human); compound 10.0 µM): 95% | residual activity (PHKG1 (human); compound 1.0 µM): 95% | residual activity (PHKG1 (human); compound 10.0 µM): 96% | residual activity (MAPKAPK5 (human); compound 1.0 µM): 89% | residual activity (MAPKAPK5 (human); compound 10.0 µM): 100% | residual activity (EPHA2 (human); compound 1.0 µM): 94% | residual activity (EPHA2 (human); compound 10.0 µM): 86% | residual activity (CDK2 CCNA2 (human); compound 1.0 µM): 85% | residual activity (CDK2 CCNA2 (human); compound 10.0 µM): 94% | residual activity (CSNK2A1 (human); compound 1.0 µM): 83% | residual activity (CSNK2A1 (human); compound 10.0 µM): 93% | residual activity (PIM2 (human); compound 1.0 µM): 97% | residual activity (PIM2 (human); compound 10.0 µM): 86% | residual activity (FGFR1 (human); compound 1.0 µM): 83% | residual activity (FGFR1 (human); compound 10.0 µM): 80% | residual activity (SRPK1 (human); compound 1.0 µM): 100% | residual activity (SRPK1 (human); compound 10.0 µM): 98% | residual activity (FLT1 (human); compound 1.0 µM): 89% | residual activity (EEF2K (human); compound 1.0 µM): 75% | residual activity (EEF2K (human); compound 10.0 µM): 85% | residual activity (MST4 (human); compound 1.0 µM): 126% | residual activity (MST4 (human); compound 10.0 µM): 108% | residual activity (AURKB (human); compound 1.0 µM): 100% | residual activity (AURKB (human); compound 10.0 µM): 106% | residual activity (RPS6KA3 KD1 KD2 (human); compound 1.0 µM): 78% | residual activity (RPS6KA3 KD1 KD2 (human); compound 10.0 µM): 100% | residual activity (DYRK2 (human); compound 1.0 µM): 82% | residual activity (DYRK2 (human); compound 10.0 µM): 98%
Compound: O=C1NC(=S)N[C@@H]1Cc1c[nH]c2ccccc12
residual activity (MAPK15 (human); compound 1.0 µM): 104% | residual activity (MAPK15 (human); compound 10.0 µM): 94%
